Measurements reported in US20250179051A1, “PYRIMIDINLY-OXY-QUINOLINE BASED HERBICIDAL COMPOUNDS” (SYNGENTA CROP PROTECTION AG, priority 2022, published 2025).

Key:
Assay type in all cases: in vivo
Conditions in all cases: 250 g/ha, evaluated after 13 days, five-point scale
[1] = test system: Amaranthus palmeri (AMAPA); test: Post-emergence herbicide glasshouse test
Procedure: (§1) Seeds of a variety of test species are sown in standard soil in pots Amaranthus retoflexus (AMARE), Amaranthus palmeri (AMAPA), Echinochloa crus-galli (ECHCG), Ipomoea hederacea (IPOHE), Setaria faberi (SETFA). After cultivation for one day (pre-emergence) or after 8 days cultivation (post-emergence) under controlled conditions in a glasshouse (at 24/16° C., day/night; 14 hours light; 65% humidity), the plants are sprayed with an aqueous spray solution derived from the formulation of the technical active ingredient in acetone/water (50:50) solution containing 0.5% Tween 20 (polyoxyethelyene sorbitan monolaurate, CAS RN 9005-64-5). Compounds are applied at 250 g/ha unless otherwise stated. The test plants are then grown in a glasshouse under controlled conditions in a glasshouse (at 24/16° C., day/night; 14 hours light; 65% humidity) and watered twice daily. After 13 days for pre and post-emergence, the test is evaluated for the percentage damage caused to the plant. The biological activities are shown in the following table on a five-point scale (5=81-100%; 4=61-80%; 3=41-60%; 2=21-40%; 1=0-20%).

[2] = test system: Echinochloa crus-galli (ECHCG); test: Post-emergence herbicide glasshouse test
Procedure: as §1

[3] = test system: Ipomoea hederacea (IPOHE); test: Post-emergence herbicide glasshouse test
Procedure: as §1

Setaria faberi (SETFA) [4] = test: Post-emergence herbicide glasshouse test
Procedure: as §1

[5] = test system: Amaranthus retoflexus (AMARE); test: Post-emergence herbicide glasshouse test
Procedure: as §1

[6] = test system: Amaranthus palmeri (AMAPA); test: Pre-emergence herbicide glasshouse test
Procedure: as §1

[7] = test system: Echinochloa crus-galli (ECHCG); test: Pre-emergence herbicide glasshouse test
Procedure: as §1

[8] = test system: Ipomoea hederacea (IPOHE); test: Pre-emergence herbicide glasshouse test
Procedure: as §1

Setaria faberi (SETFA) [9] = test: Pre-emergence herbicide glasshouse test
Procedure: as §1

[10] = test system: Amaranthus retoflexus (AMARE); test: Pre-emergence herbicide glasshouse test
Procedure: as §1

Structure (SMILES)	percentage damage caused to the plant, AMAPA [1]	percentage damage caused to the plant, ECHCG [2]	percentage damage caused to the plant, IPOHE [3]	percentage damage caused to the plant, SETFA (Setaria faberi (SETFA) [4])	percentage damage caused to the plant, AMARE [5]	percentage damage caused to the plant, AMAPA [6]	percentage damage caused to the plant, ECHCG [7]	percentage damage caused to the plant, IPOHE [8]	percentage damage caused to the plant, SETFA (Setaria faberi (SETFA) [9])	percentage damage caused to the plant, AMARE [10]
C=CCON=CCCc1nc(C(F)(F)F)nc2cccc(Oc3ncc(Cl)cn3)c12 [Compound 1.011]	4 (4=61-80%)	4 (4=61-80%)	2 (2=21-40%)	4 (4=61-80%)	5 (5=81-100%)	5 (5=81-100%)	4 (4=61-80%)	2 (2=21-40%)	5 (5=81-100%)	5 (5=81-100%)
CCNC(=O)CCc1nc(C(F)(F)F)nc2cccc(Oc3ncc(Cl)cn3)c12 [Compound 1.012, 3-[5-(5-chloropyrimidin-2-yl)oxy-2-(trifluoromethyl)quinazolin-4-yl]-N-ethyl-propanamide]	3 (3=41-60%)	1 (1=0-20%)	1 (1=0-20%)	1 (1=0-20%)	2 (2=21-40%)	2 (2=21-40%)	1 (1=0-20%)	1 (1=0-20%)	1 (1=0-20%)	1 (1=0-20%)
FC(F)(F)c1ncc(-c2nc(C(F)(F)F)nc3cccc(Oc4ncc(Cl)cn4)c23)cn1 [Compound 1.013, 5-(5-chloropyrimidin-2-yl)oxy-2-(trifluoromethyl)-4-[2-(trifluoromethyl)pyrimidin-5-yl]quinazoline]	2 (2=21-40%)	1 (1=0-20%)	1 (1=0-20%)	1 (1=0-20%)	2 (2=21-40%)	1 (1=0-20%)	1 (1=0-20%)	1 (1=0-20%)	1 (1=0-20%)	1 (1=0-20%)
Cc1ncc(-c2nc(C(F)(F)F)nc3cccc(Oc4ncc(Cl)cn4)c23)cn1 [Compound 1.014]	1 (1=0-20%)	1 (1=0-20%)	1 (1=0-20%)	1 (1=0-20%)	1 (1=0-20%)	2 (2=21-40%)	1 (1=0-20%)	1 (1=0-20%)	1 (1=0-20%)	2 (2=21-40%)
Cc1cnc(Oc2cccc3nc(C(F)(F)F)nc(CCC4CC4)c23)nc1 [Compound 1.015, 4-(2-cyclopropylethyl)-5-(5-methylpyrimidin-2-yl)oxy-2-(trifluoromethyl)quinazoline]	2 (2=21-40%)	4 (4=61-80%)	3 (3=41-60%)	5 (5=81-100%)	4 (4=61-80%)	5 (5=81-100%)	5 (5=81-100%)	3 (3=41-60%)	5 (5=81-100%)	5 (5=81-100%)
Cn1nc(-c2nc(C(F)(F)F)nc3cccc(Oc4ncc(Cl)cn4)c23)cc1C(F)F [Compound 1.016, 5-(5-chloropyrimidin-2-yl)oxy-4-[5-(difluoromethyl)-1-methyl-pyrazol-3-yl]-2-(trifluoromethyl)quinazoline]	2 (2=21-40%)	1 (1=0-20%)	2 (2=21-40%)	1 (1=0-20%)	2 (2=21-40%)	2 (2=21-40%)	1 (1=0-20%)	1 (1=0-20%)	1 (1=0-20%)	1 (1=0-20%)
CC(=NOCC(F)(F)F)c1nc(C(F)(F)F)nc2cccc(Oc3ncc(Cl)cn3)c12 [Compound 1.018, 1-[5-(5-chloropyrimidin-2-yl)oxy-2-(trifluoromethyl)quinazolin-4-yl]-N-(2,2,2-trifluoroethoxy) ethanimine]	2 (2=21-40%)	1 (1=0-20%)	2 (2=21-40%)	1 (1=0-20%)	2 (2=21-40%)	1 (1=0-20%)	1 (1=0-20%)	1 (1=0-20%)	1 (1=0-20%)	1 (1=0-20%)
FC(F)(F)c1nc(CCCC2CC2)c2c(Oc3ncc(Cl)cn3)cccc2n1 [Compound 1.019]	5 (5=81-100%)	2 (2=21-40%)	3 (3=41-60%)	5 (5=81-100%)	5 (5=81-100%)	5 (5=81-100%)	4 (4=61-80%)	1 (1=0-20%)	5 (5=81-100%)	4 (4=61-80%)
ON=CCCc1nc(C(F)(F)F)nc2cccc(Oc3ncc(Cl)cn3)c12 [Compound 1.021]	4 (4=61-80%)	2 (2=21-40%)	2 (2=21-40%)	2 (2=21-40%)	5 (5=81-100%)	4 (4=61-80%)	3 (3=41-60%)	1 (1=0-20%)	3 (3=41-60%)	4 (4=61-80%)
CO/N=C\CCc1nc(C(F)(F)F)nc2cccc(Oc3ncc(Cl)cn3)c12 [Compound 1.022, (Z)-3-[5-(5-chloropyrimidin-2-yl)oxy-2-(trifluoromethyl)quinazolin-4-yl]-N-methoxy-propan-1-imine]	4 (4=61-80%)	4 (4=61-80%)	3 (3=41-60%)	4 (4=61-80%)	4 (4=61-80%)	5 (5=81-100%)	5 (5=81-100%)	4 (4=61-80%)	5 (5=81-100%)	5 (5=81-100%)
CON1CCC(CCc2nc(C(F)(F)F)nc3cccc(Oc4ncc(Cl)cn4)c23)CC1 [Compound 1.023, 5-(5-chloropyrimidin-2-yl)oxy-4-[2-(1-methoxy-4-piperidyl)ethyl]-2-(trifluoromethyl)quinazoline]	4 (4=61-80%)	1 (1=0-20%)	3 (3=41-60%)	1 (1=0-20%)	4 (4=61-80%)	4 (4=61-80%)	2 (2=21-40%)	1 (1=0-20%)	1 (1=0-20%)	4 (4=61-80%)
COCCCc1nc(C(F)(F)F)nc2cccc(Oc3ncc(Cl)cn3)c12 [Compound 1.024]	3 (3=41-60%)	5 (5=81-100%)	3 (3=41-60%)	4 (4=61-80%)	4 (4=61-80%)	5 (5=81-100%)	5 (5=81-100%)	5 (5=81-100%)	4 (4=61-80%)	5 (5=81-100%)
